Reference: EP4389827A1, “AMINOGLYCOSIDE-LINKED PHOTOSENSITIZERS” (Centre National de la Recherche Scientifique, priority 2022, dated 2024)
Several values for one entry are separate records, joined by “and”; a condition that tells them apart may be missing. Equal values may be shown once. Read-outs that look alike come from different tables or passages of the source.

How the values were obtained:
S. aureus USA300 [1] = assay: Antibacterial photodynamic therapy on planktonic cells (CFU count); format: cell-based; settings: Staphylococcus aureus, USA300, light or radiation study, 0.5 h, irradiated 660 nm 30 minutes, 5 J/mm^2, read-out: Mean CFU drop (survival dropped by)
Experimental: (§1) Acinetobacter baumannii DSM30011, Bacillus subtilis 168, Pseudomonas aeruginosa PA14, P. aeruginosa PAO1, Staphylococcus aureus Mu50, S. aureus Newman and S. aureus USA300 were all grown in MHB-CA at 37°C with an agitation of 180 rpm. Candida albicans SC5314 was grown in yeast extract peptone dextrose broth at 35°C with an agitation of 180 rpm.
(§2) Cells were brought to stationary phase by incubating them in MHB-CA for at least 18 hours at 37°C with 180 rpm and diluted to an optical density of 1.0 just before the experiment. Cells were incubated for 20 minutes with either the compounds, photosensitizers alone, or aminoglycosides alone. Unless stated otherwise, a concentration of 10 µM was used for all experiments and samples were irradiated for 30 minutes at 660 nm with the Solis-660C lamp from ThorLabs, receiving a total of 5 J/mm^2. After illumination, cells were washed with phosphate-buffered saline (PBS) 1X, serially diluted and plated on Mueller-Hinton agar. The next day, colony forming units (CFUs) were counted.

S. aureus Newman [2] = assay: as above; format: cell-based, Staphylococcus aureus; settings: Staphylococcus aureus, NEWMAN, light or radiation study, 0.5 h, 10 µM, irradiated 660 nm 30 minutes, 5 J/mm^2, read-out: Mean CFU drop (survival dropped by)
Experimental: as §1, §2

S. aureus Mu50 [3] = assay: as above; format: cell-based, Staphylococcus aureus; settings: for log reduction at 10 µM: Staphylococcus aureus, MU50, light or radiation study, 0.5 h, irradiated 660 nm 30 minutes, 5 J/mm^2, read-out: Mean CFU drop (survival dropped by)
Experimental: as §1, §2

P. aeruginosa PA14 [4] = assay: Antibacterial photodynamic therapy on biofilm cells; format: cell-based, Pseudomonas aeruginosa
From the text: (§3) Compounds Neo-Ce6 and Tobra-Ce6 caused strong drop in survival for biofilms of A. baumannii […], P. aeruginosa species and S. aureus Mu50. […] Tobra-Ce6 had its strongest effect on A. baumannii DSM30011 with more than 4 log10 CFU/mL drop in survival and a drop of 1.7 log10 CFU/mL in P. aeruginosa PA14. Table 2: aPDT results for biofilm cells expressed in drop in the log10 CFU/mL compared to controls.

P. aeruginosa PAO1 [5] = assay: as above; format: cell-based, Pseudomonas aeruginosa
From the text: as §3

P. aeruginosa PA14 [6] = assay: Minimal inhibitory concentration (EUCAST), with or without 660 nm irradiation; format: cell-based, Pseudomonas aeruginosa; settings: for MIC: read-out: MIC
Experimental: as §1
(§4) Minimal inhibitory concentrations (MICs) for selected bacteria were investigated according to the EUCAST guidelines. Serial dilutions of the compounds, photosensitizers and aminoglycosides were made in MHB-CA in 384-well plates. Stationary-phase cells were diluted in MHB-CA to have a final concentration of 5.5 × 10^5 CFU/mL. Samples were incubated in the dark for 20 minutes at 37°C and either irradiated at 660 nm for 30 minutes with a LED device or kept in the dark. Irradiated samples received a total of 168 mJ/mm^2. Plates were then incubated at 37°C for 18 hours and MICs were evaluated visually. Triplicates were done and the synergy, or fractional inhibitory concentration (FIC), was calculated according to Doern et al., 2014: FIC = (MIC of AB)/(MIC of A) + (MIC of AB)/(MIC of B) [formula]

P. aeruginosa PAO1 [7] = assay: as above; format: cell-based, Pseudomonas aeruginosa; settings: for MIC: Pseudomonas aeruginosa, PAO1, light or radiation study, 18 h, read-out: MIC
Experimental: as §1, §4

Solubility in water = format: physicochemical
S. aureus Newman [8] = assay: Minimal inhibitory concentration (EUCAST), with or without 660 nm irradiation; format: cell-based, Staphylococcus aureus; settings: for MIC: Staphylococcus aureus, NEWMAN, light or radiation study, 18 h, read-out: MIC
Experimental: as §1, §4

S. aureus Mu50 [9] = assay: as above; format: cell-based; settings: Staphylococcus aureus, MU50, light or radiation study, 18 h, read-out: MIC
Experimental: as §1, §4

S. aureus USA300 [10] = assay: as above; format: cell-based; settings: Staphylococcus aureus, USA300, light or radiation study, 18 h
Experimental: as §1, §4

S. aureus Newman [11] = assay: Antibacterial photodynamic therapy on biofilm cells; format: cell-based, Staphylococcus aureus
From the text: as §3

S. aureus Mu50 [12] = assay: as above; format: cell-based, Staphylococcus aureus
From the text: as §3

S. aureus USA300 [13] = assay: as above; format: cell-based, Staphylococcus aureus
From the text: as §3

[14] = test system: S. aureus USA300 persister cells; assay: Antibacterial photodynamic therapy on persister cells; format: cell-based, Staphylococcus aureus; settings: persister cells (6 hours, 2 mM neomycin); aPDT at 10 µM, 5 J/mm^2 (Figure 6a)
Experimental: Persister plateau and AG concentration varied from one species to another. In S. aureus USA300, a stable plateau was obtained following 6 hours of incubation with 2 mM of neomycin. […] This control is crucial to make sure that a persister state has been achieved. […] As there are no significant differences between irradiated and non-irradiated samples, however, the production of singlet oxygen may not be the factor leading to cell death. In S. aureus Newman, cells were treated for 24 hours with 1 mM of neomycin. […] Although this synergy does exist, like in S. aureus USA300, there is no significant difference in survival for irradiated and non-irradiated samples, except for Ce6.

A. baumannii DSM30011 = assay: Minimal inhibitory concentration (EUCAST), with or without 660 nm irradiation; format: cell-based, Acinetobacter baumannii; settings: for MIC: Acinetobacter baumannii, DSM30011, light or radiation study, 18 h, read-out: MIC
Experimental: as §1, §4

[15] = with (+) irradiation, 660 nm 30 minutes, 168 mJ/mm^2
[16] = conjugate with irradiation, from FIC

Row | Structure (SMILES) | log reduction at 10 µM (S. aureus USA300 [1]) | log reduction at 10 µM (S. aureus Newman [2]) | log reduction at 10 µM (S. aureus Mu50 [3]) | drop in the log10 CFU/mL compared to controls (P. aeruginosa PA14 [4]; + irradiation) | drop in the log10 CFU/mL compared to controls (P. aeruginosa PA14 [4]; - irradiation) | drop in the log10 CFU/mL compared to controls (P. aeruginosa PAO1 [5]; + irradiation) | drop in the log10 CFU/mL compared to controls (P. aeruginosa PAO1 [5]; - irradiation) | MIC (P. aeruginosa PAO1 [7]; [15]) | MIC (P. aeruginosa PAO1 [7]; without (-) irradiation) | solubility (Solubility in water) | MIC (S. aureus Newman [8]; [15]) | MIC (S. aureus Newman [8]; without (-) irradiation) | MIC (S. aureus Mu50 [9]; [15]) | MIC (S. aureus Mu50 [9]; without (-) irradiation) | MIC (S. aureus USA300 [10]; [15]) | MIC (S. aureus USA300 [10]; without (-) irradiation) | drop in the log10 CFU/mL compared to controls (S. aureus Newman [11]; + irradiation) | drop in the log10 CFU/mL compared to controls (S. aureus Newman [11]; - irradiation) | drop in the log10 CFU/mL compared to controls (S. aureus Mu50 [12]; + irradiation) | drop in the log10 CFU/mL compared to controls (S. aureus Mu50 [12]; - irradiation) | also measured
1 | C=Cc1c(C)c2cc3nc(c(CC(=O)O)c4[nH]c(cc5nc(cc1[nH]2)C(C)=C5CC)c(C)c4C(=O)O)[C@@H](CCC(=O)O)[C@@H]3C [Ce6, chlorin e6] | 3.2 | ~3.6 | 3.2 | 0.60 log10 CFU/mL | 0.29 log10 CFU/mL | 0.25 log10 CFU/mL | 0.28 log10 CFU/mL | > 64 µM | > 64 µM | poorly soluble in water | 64 µM | > 64 µM | 4 µM | > 64 µM | 16 to 32 µM | > 64 µM | 0.57 log10 CFU/mL | -0.19 log10 CFU/mL | 0.36 log10 CFU/mL | -0.005 log10 CFU/mL | MIC (P. aeruginosa PA14 [6]; Pseudomonas aeruginosa, PA14, light or radiation study, 18 h, without (-) irradiation): > 64 µM; MIC (P. aeruginosa PA14 [6]; [15]): > 64 µM; drop in the log10 CFU/mL compared to controls (S. aureus USA300 [13]; + irradiation): 0.73 log10 CFU/mL; drop in the log10 CFU/mL compared to controls (S. aureus USA300 [13]; - irradiation): 0.33 log10 CFU/mL; persister cell survival (in words) [14]: some killing; MIC (A. baumannii DSM30011; [15]): > 64 µM; MIC (A. baumannii DSM30011; without (-) irradiation): > 64 µM
2 | C=Cc1c(C)c2cc3nc(c(CC(=O)O)c4[nH]c(cc5nc(cc1[nH]2)C(C)=C5CC)c(C)c4C(=O)O)[C@@H](CCC(=O)NC[C@H]1O[C@H](O[C@@H]2[C@@H](O)[C@H](O[C@H]4O[C@H](CN)[C@@H](O)C[C@H]4N)[C@@H](N)C[C@H]2N)[C@H](O)[C@@H](N)[C@@H]1O)[C@@H]3C [Tobra-Ce6] | 3.5 | ~3.9 | 5.4 | 1.7 log10 CFU/mL and 1.69 log10 CFU/mL | 0.85 log10 CFU/mL | 1.25 log10 CFU/mL | 0.79 log10 CFU/mL | 4 to 8 µM | > 16 µM | highly soluble | 2 µM | > 16 µM | 2 to 4 µM | 16 µM | 2 to 4 µM | > 16 µM | 1.36 log10 CFU/mL | 0.49 log10 CFU/mL | 1.32 log10 CFU/mL | 0.37 log10 CFU/mL | survival (in words) (S. aureus Mu50 [3]; irradiated samples, 5 J/mm^2 (Figure 3a)): high bacterial death; MIC (P. aeruginosa PA14 [6]; Pseudomonas aeruginosa, PA14, light or radiation study, 18 h, with (+) irradiation, 660 nm 30 minutes, 168 mJ/mm^2): > 16 µM; Synergy (P. aeruginosa PA14 [6]; [16]): -; MIC (P. aeruginosa PA14 [6]; without (-) irradiation): > 16 µM; Synergy (P. aeruginosa PAO1 [7]; [16]): -; Synergy (S. aureus Newman [8]; [16]): +; drop in the log10 CFU/mL compared to controls (S. aureus USA300 [13]; + irradiation): 0.14 log10 CFU/mL; drop in the log10 CFU/mL compared to controls (S. aureus USA300 [13]; - irradiation): 0.28 log10 CFU/mL; persister cell survival (in words) [14]: close to or under the detection limit; MIC (A. baumannii DSM30011; [15]): 2 to 4 µM; MIC (A. baumannii DSM30011; without (-) irradiation): > 16 µM; Synergy (A. baumannii DSM30011; [16]): +
